Target: σ1 receptor and the μ-opiod receptor
Assay: μ and σ1 dual binding: combined class from the Ki of both radioligand assays
Parameters: species or system human
Settings: transfected HEK-293 membranes (σ1), transfected CHO-K1 cell membranes (μ)
In short: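 Classes combine both Ki values, split at 500 nM and 100 nM. Human μ-opioid binding used 1 nM [3H]-DAMGO on CHO-K1 membranes (27 °C, 60 min, pH 7.4, naloxone 10 μM for NSB); human σ1 used 5 nM [3H](+)-pentazocine on HEK-293 membranes (37 °C, 120 min, pH 8, haloperidol 10 μM for NSB).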

## CC(c1ccccc1)n1cc(CN2CCC(c3cccc(NS(C)(=O)=O)c3)CC2)nn1 (centres unmarked) [Example 76, N-(3-(1-((1-(1-phenylethyl)-1H-1,2,3-triazol-4-yl)methyl)piperidin-4-yl)phenyl)methanesulfonamide]
  Ki range for both μ and σ1 (dual-binding class): < 500 nM

## NS(=O)(=O)c1cccc(C2CCN(Cc3cn(Cc4ccccn4)nn3)CC2)c1 [Example 141, 3-(1-((1-(pyridin-2-ylmethyl)-1H-1,2,3-triazol-4-yl)methyl)piperidin-4-yl)benzenesulfonamide]
  Ki range for both μ and σ1 (dual-binding class): ≥ 500 nM

Source: US9981942B2, “Piperidine derivatives having multimodal activity against pain” (LABORATORIOS DEL DR. ESTEVE S.A., priority 2013, dated 2018)
